Reference: patent publication US6514540B1, “Therapeutic composition including plantain and aloe vera for treatment of arthritis and other afflictions” (priority 1999, dated 2003)

Tested on: arthritic symptoms
Test: Clinical trials: topical application for arthritis symptoms
Format: in vivo, human
Details: Subject No. 1, inflamed finger joint; injected locally and up to 80 mg orally over four to five months
Protocol: In addition, the entire finger and part of the hand was affected by the pain and the swelling resulting in restricted use of the hand.
The steroids were both injected locally and ingested in the form of up to 80 mg of prednazone, which was taken orally over a period of four to five months.
During this period, the frequency of the application of the cream or lotion and heat gradually diminished to three times per day without a need for augmentation of the treatment with heat.
Onset of these symptoms can result in a two- to three-fold increase in the size of a joint, with an inflammation of the surrounding tissue. This can occur in a matter of hours and affects the associated limb resulting in substantial pain, a loss of strength in the entire limb, sleep interruption (due to pain), and general malaise due to the intensity and continuous nature of the throbbing.

## C[C@]12C=CC(=O)C=C1CC[C@@H]1[C@@H]2C(=O)C[C@@]2(C)[C@H]1CC[C@]2(O)C(=O)CO [prednazone]
  relief of pain and swelling by conventional steroid treatment: some initial success in relieving both the pain and swelling, but upon elimination of the drug, the symptoms returned
